US20150209403A1, “Dose Adjustment” (AbbVie Inc., priority 2014, published 2015)
One block for each molecule: values may come before it.

Columns and labels:
[1] = DDI studies of 3D regimen with HIV-1 protease inhibitors (ATV, DRV, LPV/r); settings: for Total bilirubin elevation Grade 3, subjects: 3D regimen DDI study; for Cmax, AUC and Ctrough, % change: HIV PI co-administered with 3D regimen; for tolerability: co-administration with 3D regimen
[2] = Drug interaction study of 3D regimen with carbamazepine (CBZ); format: in vivo, human
Method: Single doses of the 3D regimen (Compound 1/r/ombitasvir 150/100/25 mg+dasabuvir 250 mg) were administered alone and in the presence of steady state CBZ 200 mg BID in 12 healthy subjects. Drug concentrations were determined from blood samples collected on multiple study days and PK parameters were estimated by noncompartmental analyses. Safety was assessed (adverse events, vital signs, ECG, etc.) throughout the study.

[3] = DDI studies of 3D regimen with HIV-1 N(t)RTIs, NNRTIs and INSTI; format: in vivo, human; settings: for exposures (Cmax and AUCτ), % change: both; for exposures (Cmax and AUCτ), % change / exposures (Cmax and AUCτ), effect: human, in vivo
[4] = Drug interaction study of 3D or 2D regimen with omeprazole; settings: human, in vivo, 40 mg
Method: In 24 healthy volunteers omeprazole (40 mg) were administered on day 1 and days 20-24. The 3D or 2D regimen (Compound 1/r 150/100 mg QD+ombitasvir 25 mg QD±dasabuvir 250 mg BID) was administered on days 6-24. Intensive PK sampling was performed for study drugs when dosed alone and during coadministration and parameters estimated by noncompartmental analyses. Safety was evaluated through assessment of adverse events, vital signs, ECG and clinical laboratory tests.

[5] = Drug interaction study of 3D or 2D with ketoconazole (KTZ); format: in vivo, human
Method: Single doses of Compound 1/r/ombitasvir 150/100/25 mg+/−dasabuvir 250 mg were administered alone and in the presence of steady state KTZ 400 mg QD in 24 healthy volunteers. Drug concentrations were determined from intensive blood samples and PK parameters were estimated by noncompartmental analyses. Safety assessment (adverse events, clinical labs, vital signs, ECG) was done throughout the study.

[6] = Drug interaction study of pravastatin and rosuvastatin with 3D or 2D; format: in vivo, human
Method: After a washout, multiple doses of pravastatin (10 mg QD, N=12) and rosuvastatin (5 mg QD, N=12) were administered with and without 3D or 2D to steady state in Period 2. […] Intensive PK sampling was performed in both periods and PK parameters estimated by noncompartmental analyses. Safety was evaluated through assessment of adverse events, vital signs, ECG and clinical laboratory tests.

[7] = RPV 75 mg QD; cited from earlier work
[8] = Drug interaction study of 3D or 2D regimen with digoxin; format: in vivo, human; settings: healthy volunteers
Method: Single doses of digoxin (0.5 mg) were administered alone and in presence of steady state Compound 1/r 150/100 mg QD+ombitasvir 25 mg QD+/−dasabuvir […] BID in 24 healthy volunteers. Drug concentrations were
determined from intensive blood samples collected on multiple study days and PK parameters were estimated by noncompartmental analyses. Safety was assessed (adverse events, vital signs, ECG, etc.) throughout the study.

[9] = human, in vivo
Source text: Safety was monitored throughout the study.

[10] = single dose 3D or 2D with steady state KTZ 400 mg QD
[11] = LPV/r 800/200 mg QPM with 3D regimen

SMILES: Cc1cnc(C(=O)N[C@H]2CCCCC/C=C\[C@@H]3C[C@@]3(C(=O)NS(=O)(=O)C3CC3)NC(=O)[C@@H]3C[C@@H](Oc4nc5ccccc5c5ccccc45)CN3C2=O)cn1 [Compound 1, (2R,6S,13aS,14aR,16aS,Z)—N-(cyclopropylsulfonyl)-6-(5-methylpyrazine-2-carboxamido)-5,16-dioxo-2-(phenanthridin-6-yloxy)-1,2,3,5,6,7,8,9,10,11,13a,14,14a,15,16,16a-hexadecahydrocyclopropa[e]pyrrolo[1,2-a][1,4]diazacyclopentadecine-14a-carboxamide]
- exposures (Cmax and AUCτ), % change [3]: up to ±32%
- exposures (Cmax and AUCτ), effect [3]: not affected
- Cmax, AUC or Ctrough, % change [4]: < 20%
- AUCinf increased by [5, 10]: 98-116%
- Cmax increased by ([5]; single dose 3D or 2D with steady state KTZ 400 mg QD, healthy volunteers): 37-72%
- exposures (Cmax and AUCτ), % higher ([1]; 3D regimen with LPV/r QPM or BID): ≤ 117%

SMILES: COc1c(-c2ccc3cc(NS(C)(=O)=O)ccc3c2)cc(-n2ccc(=O)[nH]c2=O)cc1C(C)(C)C [Compound 2, N-(6-(3-tert-butyl-5-(2,4-dioxo-3,4-dihydropyrimidin-1(2H)-yl)-2-methoxyphenyl)naphthalen-2-yl)methanesulfonamide]
- exposures (Cmax and AUCτ), % change [3]: up to ±18%
- exposures (Cmax and AUCτ), effect [3]: not affected
- Cmax, AUC or Ctrough, % change [4]: < 20%
- Exposures increased by [5, 10]: up to 42%

SMILES: COC(=O)N[C@H](C(=O)N1CCC[C@H]1C(=O)Nc1ccc([C@@H]2CC[C@@H](c3ccc(NC(=O)[C@@H]4CCCN4C(=O)[C@@H](NC(=O)OC)C(C)C)cc3)N2c2ccc(C(C)(C)C)cc2)cc1)C(C)C [Compound 3]
- exposures (Cmax and AUCτ), % change [3]: up to ±11%
- exposures (Cmax and AUCτ), effect [3]: not affected
- Exposures increased by [5, 10]: up to 26%

SMILES: CC(C)CN(C[C@@H](O)[C@H](Cc1ccccc1)NC(=O)O[C@H]1CO[C@H]2OCC[C@H]21)S(=O)(=O)c1ccc(N)cc1 [DRV, Darunavir]
- tolerability [1]: generally well tolerated

SMILES: CC[C@H](C)C(=O)O[C@H]1C[C@H](O)C=C2C=C[C@H](C)[C@H](CC[C@@H](O)C[C@@H](O)CC(=O)O)[C@H]21 [Pravastatin]
- AUC, % higher ([6]; statin with 3D or 2D): ~80%
- Cmax, % higher ([6]; statin with 3D or 2D): about 40%

SMILES: Cc1nnc(C(=O)NC(C)(C)c2nc(C(=O)NCc3ccc(F)cc3)c(O)c(=O)n2C)o1 [RAL, Raltegravir]
- treatment discontinuations / premature discontinuation due to AE ([3]; co-administration of 3D regimen with HIV-1 ARV): no treatment discontinuations
- tolerability ([3]; co-administration with 3D regimen): generally well tolerated

SMILES: Cc1cc(/C=C/C#N)cc(C)c1Nc1ccnc(Nc2ccc(C#N)cc2)n1 [RPV, Rilpivirine]
- Cmax, fold higher than Cmax with RPV 25 mg QD [7]: approximately 2.6 fold
- QTcF increase [7]: 10.7 ms

SMILES: CC(C)c1nc(N(C)S(C)(=O)=O)nc(-c2ccc(F)cc2)c1/C=C/[C@@H](O)C[C@@H](O)CC(=O)O [Rosuvastatin]
- AUC, % higher ([6]; statin with 2D): 32%
- Cmax, % higher ([6]; statin with 2D): 161%
- AUC, % higher ([6]; statin with 3D): 159%
- Cmax, % higher ([6]; statin with 3D): 613%

SMILES: C[C@H]1O[C@@H](O[C@H]2[C@@H](O)C[C@H](O[C@H]3[C@@H](O)C[C@H](O[C@H]4CC[C@@]5(C)[C@H](CC[C@@H]6[C@@H]5C[C@@H](O)[C@]5(C)[C@@H](C7=CC(=O)OC7)CC[C@]65O)C4)O[C@@H]3C)O[C@@H]2C)C[C@H](O)[C@@H]1O [digoxin]
- exposures (Cmax and AUCinf) increased by ([8]; digoxin 0.5 mg single dose with 2D): 24-58%
- exposures (Cmax and AUCinf) increased by ([8]; digoxin 0.5 mg single dose with 2D, listed as Digoxin): ≤ 58%
- exposures (Cmax and AUCinf) increased by ([8]; digoxin 0.5 mg single dose with 3D): 15-16%
- exposures (Cmax and AUCinf) increased by ([8]; digoxin 0.5 mg single dose with 3D, listed as Digoxin): ≤ 16%

SMILES: C=CC[C@@H]1/C=C(\C)C[C@H](C)C[C@H](OC)[C@H]2O[C@@](O)(C(=O)C(=O)N3CCCC[C@H]3C(=O)O[C@H](/C(C)=C/[C@@H]3CC[C@@H](O)[C@H](OC)C3)[C@H](C)[C@@H](O)CC1=O)[C@H](C)C[C@@H]2OC [tacrolimus]
- tacrolimus DN_AUCinf, fold of tacrolimus exposure when administered alone [9]: 57-86 fold
- tacrolimus DN_Cmax, fold of tacrolimus exposure when administered alone [9]: 3.7-4.3 fold
- tacrolimus DN_C24, fold of tacrolimus exposure when administered alone ([9]; 24 h): 17-25 fold

More lines, main results first:

- Total bilirubin elevation Grade 3, subjects ([1]; ATV QD arm): 10/24
- Total bilirubin elevation Grade 3, subjects ([1]; ATV QPM arm): 16/24
- Ctrough, % higher ([1]; ATV+RTV QPM with 3D regimen): 68%
- Cmax, AUC and Ctrough, % change [1]: ≥ 20%
SMILES: COC(=O)N[C@H](C(=O)N[C@@H](Cc1ccccc1)[C@@H](O)CN(Cc1ccc(-c2ccccn2)cc1)NC(=O)[C@@H](NC(=O)OC)C(C)(C)C)C(C)(C)C [ATV, Atazanavir]
- tolerability [1]: generally well tolerated

- exposures, % increase ([2]; CBZ with 3D): ≤ 17%
SMILES: NC(=O)N1c2ccccc2C=Cc2ccccc21 [CBZ, Carbamazepine]
- Increases in ALT and AST, peak ([2]; 3D coadministered with CBZ): Grade 3 in 1 subject
- tolerability ([2]; coadministration of 3D with CBZ): generally tolerated

- AUC24 increased by ([5]; in vivo): 105-117%
- Cmax, % change ([5]; in vivo): < 20%
SMILES: CC(=O)N1CCN(c2ccc(OCC3COC(Cn4ccnc4)(c4ccc(Cl)cc4Cl)O3)cc2)CC1 (centres unmarked) [KTZ, Ketoconazole]

- Cmax, AUC and Ctrough, % change [1]: ≤ 15%
- Ctrough versus values observed with LPV/r 400/100 mg BID administered alone [1, 11]: comparable
- Ctrough, % higher [1, 11]: 218%
SMILES: Cc1cccc(C)c1OCC(=O)N[C@@H](Cc1ccccc1)[C@@H](O)C[C@H](Cc1ccccc1)NC(=O)[C@H](C(C)C)N1CCCNC1=O [LPV, Lopinavir]

- exposures (Cmax and AUCτ), % change [3]: ±17%
- exposures (Cmax and AUCτ), effect [3]: not affected
- Exposures increased by [5, 10]: 27-57%
SMILES: CC(C)c1nc(CN(C)C(=O)N[C@H](C(=O)N[C@@H](Cc2ccccc2)C[C@H](O)[C@H](Cc2ccccc2)NC(=O)OCc2cncs2)C(C)C)cs1 [ritonavir]
